Results published in US9708314B2, “Heterocyclic amide compound” (NISSAN CHEMICAL INDUSTRIES, LTD., priority 2013, dated 2017).
Blank lines part the entries; values can stand above or below the molecule they belong to.

How the values were obtained:
[1] = test system: Beta vulgaris ssp. vulgaris; experiment: Test Example 4: effect on crop by application to foliage (diluvial soil, plastic box); type: in vivo; details: application to foliage; for effect on crop, f (Beta vulgaris ssp. vulgaris): 320 g/ha
Method in brief: (§1)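 Scores run from 0 (herbicidal ratio ≤5%) to 5 (≥90%, almost fully withered) and were assessed three weeks after foliar spraying. Seedlings had been raised for 14 days at 25-30° C in sterilized diluvial soil before treatment, with the emulsion diluted in water to the stated g/ha dose.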

Zea mays = experiment: as above; type: in vivo; details: application to foliage; for effect on crop, b (Zea mays): 320 g/ha
Method in brief: as §1

Triticum aestivum = experiment: as above; type: in vivo; details: application to foliage; for effect on crop, e (Triticum aestivum): 320 g/ha
Method in brief: as §1

Glycine max = experiment: as above; type: in vivo; details: application to foliage; for effect on crop, c (Glycine max): 320 g/ha
Method in brief: as §1

[2] = test system: directly sowed Oryza sativa; experiment: as above; type: in vivo; details: application to foliage; for effect on crop, d (directly sowed Oryza sativa): 320 g/ha
Method in brief: as §1

Brassica campestris L. = experiment: as above; type: in vivo; details: application to foliage; for effect on crop, g (Brassica campestris L.): 320 g/ha
Method in brief: as §1

[3] = test system: directly sowed Oryza sativa; experiment: Test Example 3: effect on crop by application to foliage (Wagner pot, water depth 0.1-0.5 cm); type: in vivo; details: Nineteenth Table, application herbicide amount 320 g/ha; for b (effect on crop grade): application to foliage
Method in brief: (§2)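 Rice-field weeds and directly sown rice were grown 14 days in flooded alluvial soil (water depth 0.1–0.5 cm) at 25–30 °C in a greenhouse. An emulsion formulation diluted to the stated g/ha rate was sprayed onto stems and leaves. Effects were scored on a 0–5 scale (herbicidal ratio bands) three weeks after treatment.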

Lolium multiflorum Lam. = experiment: Test Example 4: herbicidal effect by application to foliage (diluvial soil, plastic box); type: in vivo; details: application to foliage; for herbicidal effect, K (Lolium multiflorum Lam.): 320 g/ha
Method in brief: as §1

Abutilon theophrasti = experiment: as above; type: in vivo; details: application to foliage; for herbicidal effect, M (Abutilon theophrasti): 320 g/ha
Method in brief: as §1

Alopecurus myosuroides = experiment: as above; type: in vivo; details: application to foliage; for herbicidal effect, J (Alopecurus myosuroides): 320 g/ha
Method in brief: as §1

Stellaria media = experiment: as above; type: in vivo; details: application to foliage; for herbicidal effect, P (Stellaria media): 320 g/ha
Method in brief: as §1

Chenopodium album = experiment: as above; type: in vivo; details: application to foliage; for herbicidal effect, O (Chenopodium album): 320 g/ha
Method in brief: as §1

Veronica persica = experiment: as above; type: in vivo; details: application to foliage; for herbicidal effect, R (Veronica persica): 320 g/ha
Method in brief: as §1

[4] = test system: Echinochloa crus-galli var. crus-galli; experiment: as above; type: in vivo; details: application to foliage; for herbicidal effect, H (Echinochloa crus-galli var. crus-galli): 320 g/ha
Method in brief: as §1

Digitaria ciliaris = experiment: as above; type: in vivo; details: application to foliage; for herbicidal effect, F (Digitaria ciliaris): 320 g/ha
Method in brief: as §1

Avena fatua = experiment: as above; type: in vivo; details: application to foliage; for herbicidal effect, I (Avena fatua): 320 g/ha
Method in brief: as §1

Galium spurium = experiment: as above; type: in vivo; details: application to foliage; for herbicidal effect, Q (Galium spurium): 320 g/ha
Method in brief: as §1

Setaria viridis = experiment: as above; type: in vivo; details: application to foliage; for herbicidal effect, G (Setaria viridis): 320 g/ha
Method in brief: as §1

Apera spica-venti. = experiment: as above; type: in vivo; details: application to foliage; for herbicidal effect, L (Apera spica-venti.): 320 g/ha
Method in brief: as §1

Amaranthus retroflexus = experiment: as above; type: in vivo; details: application to foliage; for herbicidal effect, N (Amaranthus retroflexus): 320 g/ha
Method in brief: as §1

Leptochloa chinensis = experiment: Test Example 3: herbicidal effect by application to foliage (Wagner pot, water depth 0.1-0.5 cm); type: in vivo; details: Nineteenth Table, application herbicide amount 320 g/ha; for D (herbicidal effect grade): application to foliage
Method in brief: as §2

[5] = test system: Echinochloa crus-galli var. crus-galli; experiment: as above; type: in vivo; details: Nineteenth Table, application herbicide amount 320 g/ha; for H (herbicidal effect grade): application to foliage
Method in brief: as §2

Cyperus difformis = experiment: as above; type: in vivo; details: Nineteenth Table, application herbicide amount 320 g/ha; for E (herbicidal effect grade): application to foliage
Method in brief: as §2

[6] = application herbicide amount 320 g/ha

SMILES: Cc1nonc1NC(=O)c1ccc(C(F)(F)F)n2c(C(C)C)nnc12 [3-001, 3-Isopropyl-N-(4-methyl-1,2,5-oxadiazol-3-yl)-5-(trifluoromethyl)-[1,2,4]triazolo[4,3-a]pyridine-8-carboxamide]
- melting point: 185 to 186 °C

SMILES: CCn1ncnc1NC(=O)c1ccc(C(F)(F)F)n2c(C(C)C)nnc12 [4-002]
- effect on crop, f (Beta vulgaris ssp. vulgaris) [1]: 0 (Herbicidal ratio of 5% or less (almost no effect))
- effect on crop, b (Zea mays) (Zea mays): 0 (Herbicidal ratio of 5% or less (almost no effect))
- effect on crop, e (Triticum aestivum) (Triticum aestivum): 0 (Herbicidal ratio of 5% or less (almost no effect))
- effect on crop, c (Glycine max) (Glycine max): 0 (Herbicidal ratio of 5% or less (almost no effect))
- effect on crop, d (directly sowed Oryza sativa) [2]: 1 (Herbicidal ratio of 5% or more and less than 20%)
- effect on crop, g (Brassica campestris L.) (Brassica campestris L.): 0 (Herbicidal ratio of 5% or less (almost no effect))
- b (effect on crop grade) [3]: 0 (Herbicidal ratio of 5% or less (almost no effect))
- herbicidal effect, K (Lolium multiflorum Lam.) (Lolium multiflorum Lam.): 0 (Herbicidal ratio of 5% or less (almost no effect))
- herbicidal effect, M (Abutilon theophrasti) (Abutilon theophrasti): 5 (Herbicidal ratio of 90% or more (almost completely withered))
- herbicidal effect, J (Alopecurus myosuroides) (Alopecurus myosuroides): 0 (Herbicidal ratio of 5% or less (almost no effect))
- herbicidal effect, P (Stellaria media) (Stellaria media): 3 (Herbicidal ratio of 40% or more and less than 70%)
- herbicidal effect, O (Chenopodium album) (Chenopodium album): 4 (Herbicidal ratio of 70% or more and less than 90%)
- herbicidal effect, R (Veronica persica) (Veronica persica): 1 (Herbicidal ratio of 5% or more and less than 20%)
- herbicidal effect, H (Echinochloa crus-galli var. crus-galli) [4]: 2 (Herbicidal ratio of 20% or more and less than 40%)
- herbicidal effect, F (Digitaria ciliaris) (Digitaria ciliaris): 1 (Herbicidal ratio of 5% or more and less than 20%)
- herbicidal effect, I (Avena fatua) (Avena fatua): 1 (Herbicidal ratio of 5% or more and less than 20%)
- herbicidal effect, Q (Galium spurium) (Galium spurium): 1 (Herbicidal ratio of 5% or more and less than 20%)
- herbicidal effect, G (Setaria viridis) (Setaria viridis): 1 (Herbicidal ratio of 5% or more and less than 20%)
- herbicidal effect, L (Apera spica-venti.) (Apera spica-venti.): 0 (Herbicidal ratio of 5% or less (almost no effect))
- herbicidal effect, N (Amaranthus retroflexus) (Amaranthus retroflexus): 4 (Herbicidal ratio of 70% or more and less than 90%)
- D (herbicidal effect grade) (Leptochloa chinensis): 4 (Herbicidal ratio of 70% or more and less than 90%)
- H (herbicidal effect grade) [5]: 0 (Herbicidal ratio of 5% or less (almost no effect))
- E (herbicidal effect grade) (Cyperus difformis): 0 (Herbicidal ratio of 5% or less (almost no effect))

SMILES: CCn1nc2c(C(=O)Nc3nnc(C)o3)ccc(C(F)(F)F)n2c1=O [6-003]
- effect on crop, f (Beta vulgaris ssp. vulgaris) [1]: 1 (Herbicidal ratio of 5% or more and less than 20%)
- effect on crop, b (Zea mays) (Zea mays): 0 (Herbicidal ratio of 5% or less (almost no effect))
- effect on crop, e (Triticum aestivum) (Triticum aestivum): 0 (Herbicidal ratio of 5% or less (almost no effect))
- effect on crop, c (Glycine max) (Glycine max): 0 (Herbicidal ratio of 5% or less (almost no effect))
- effect on crop, d (directly sowed Oryza sativa) [2]: 0 (Herbicidal ratio of 5% or less (almost no effect))
- effect on crop, g (Brassica campestris L.) (Brassica campestris L.): 0 (Herbicidal ratio of 5% or less (almost no effect))
- b (effect on crop grade) [3]: 0 (Herbicidal ratio of 5% or less (almost no effect))
- herbicidal effect, K (Lolium multiflorum Lam.) (Lolium multiflorum Lam.): 0 (Herbicidal ratio of 5% or less (almost no effect))
- herbicidal effect, M (Abutilon theophrasti) (Abutilon theophrasti): 4 (Herbicidal ratio of 70% or more and less than 90%)
- herbicidal effect, J (Alopecurus myosuroides) (Alopecurus myosuroides): 0 (Herbicidal ratio of 5% or less (almost no effect))
- herbicidal effect, P (Stellaria media) (Stellaria media): 4 (Herbicidal ratio of 70% or more and less than 90%)
- herbicidal effect, O (Chenopodium album) (Chenopodium album): 3 (Herbicidal ratio of 40% or more and less than 70%)
- herbicidal effect, R (Veronica persica) (Veronica persica): 1 (Herbicidal ratio of 5% or more and less than 20%)
- herbicidal effect, H (Echinochloa crus-galli var. crus-galli) [4]: 3 (Herbicidal ratio of 40% or more and less than 70%)
- herbicidal effect, F (Digitaria ciliaris) (Digitaria ciliaris): 4 (Herbicidal ratio of 70% or more and less than 90%)
- herbicidal effect, I (Avena fatua) (Avena fatua): 0 (Herbicidal ratio of 5% or less (almost no effect))
- herbicidal effect, Q (Galium spurium) (Galium spurium): 1 (Herbicidal ratio of 5% or more and less than 20%)
- herbicidal effect, G (Setaria viridis) (Setaria viridis): 3 (Herbicidal ratio of 40% or more and less than 70%)
- herbicidal effect, L (Apera spica-venti.) (Apera spica-venti.): 0 (Herbicidal ratio of 5% or less (almost no effect))
- herbicidal effect, N (Amaranthus retroflexus) (Amaranthus retroflexus): 2 (Herbicidal ratio of 20% or more and less than 40%)
- D (herbicidal effect grade) (Leptochloa chinensis): 5 (Herbicidal ratio of 90% or more (almost completely withered))
- H (herbicidal effect grade) [5]: 1 (Herbicidal ratio of 5% or more and less than 20%)
- E (herbicidal effect grade) (Cyperus difformis): 0 (Herbicidal ratio of 5% or less (almost no effect))

The next lines start with results.

- melting point: 238 to 241 °C
SMILES: Cc1nnc(NC(=O)c2ccc(C(F)(F)F)n3c(Cl)nnc23)o1 [1-013, 3-Chloro-N-(5-methyl-1,3,4-oxadiazol-2-yl)-5-(trifluoromethyl)-[1,2,4]triazolo[4,3-a]pyridine-8-carboxamide]
- f (Beta vulgaris ssp. vulgaris) effect on crop [1, 6]: 3 (Herbicidal ratio of 40% or more and less than 70%)
- b (Zea mays) effect on crop (Zea mays; [6]): 0 (Herbicidal ratio of 5% or less (almost no effect))
- e (Triticum aestivum) effect on crop (Triticum aestivum; [6]): 1 (Herbicidal ratio of 5% or more and less than 20%)
- c (Glycine max) effect on crop (Glycine max; [6]): 0 (Herbicidal ratio of 5% or less (almost no effect))
- d (directly sowed Oryza sativa) effect on crop [2, 6]: 0 (Herbicidal ratio of 5% or less (almost no effect))
- g (Brassica campestris L.) effect on crop (Brassica campestris L.; [6]): 0 (Herbicidal ratio of 5% or less (almost no effect))
- b (directly sowed Oryza sativa) effect on crop grade [3]: 0 (Herbicidal ratio of 5% or less (almost no effect))
- K (Lolium multiflorum Lam.) herbicidal effect (Lolium multiflorum Lam.; [6]): 1 (Herbicidal ratio of 5% or more and less than 20%)
- M (Abutilon theophrasti) herbicidal effect (Abutilon theophrasti; [6]): 3 (Herbicidal ratio of 40% or more and less than 70%)
- J (Alopecurus myosuroides) herbicidal effect (Alopecurus myosuroides; [6]): 1 (Herbicidal ratio of 5% or more and less than 20%)
- P (Stellaria media) herbicidal effect (Stellaria media; [6]): 4 (Herbicidal ratio of 70% or more and less than 90%)
- O (Chenopodium album) herbicidal effect (Chenopodium album; [6]): 5 (Herbicidal ratio of 90% or more (almost completely withered))
- R (Veronica persica) herbicidal effect (Veronica persica; [6]): 3 (Herbicidal ratio of 40% or more and less than 70%)
- H (Echinochloa crus-galli var. crus-galli) herbicidal effect [4, 6]: 4 (Herbicidal ratio of 70% or more and less than 90%)
- F (Digitaria ciliaris) herbicidal effect (Digitaria ciliaris; [6]): 3 (Herbicidal ratio of 40% or more and less than 70%)
- I (Avena fatua) herbicidal effect (Avena fatua; [6]): 0 (Herbicidal ratio of 5% or less (almost no effect))
- Q (Galium spurium) herbicidal effect (Galium spurium; [6]): 1 (Herbicidal ratio of 5% or more and less than 20%)
- G (Setaria viridis) herbicidal effect (Setaria viridis; [6]): 1 (Herbicidal ratio of 5% or more and less than 20%)
- L (Apera spica-venti.) herbicidal effect (Apera spica-venti.; [6]): 0 (Herbicidal ratio of 5% or less (almost no effect))
- N (Amaranthus retroflexus) herbicidal effect (Amaranthus retroflexus; [6]): 3 (Herbicidal ratio of 40% or more and less than 70%)
- D (Leptochloa chinensis) herbicidal ratio grade (Leptochloa chinensis): 4 (Herbicidal ratio of 70% or more and less than 90%)
- H (Echinochloa crus-galli var. crus-galli) herbicidal ratio grade [5]: 3 (Herbicidal ratio of 40% or more and less than 70%)
- E (Cyperus difformis) herbicidal ratio grade (Cyperus difformis): 3 (Herbicidal ratio of 40% or more and less than 70%)

- melting point: 189 to 190 °C
SMILES: CC(C)c1nnc2c(C(=O)Nc3nnnn3C)ccc(Cl)n12 [2-004, 5-Chloro-3-isopropyl-N-(1-methyl-1H-tetrazol-5-yl)-[1,2,4]triazolo[4,3-a]pyridine-8-carboxamide]
